Experimental findings from patent US12643867B2, “Compositions and uses thereof” (University of Virginia Patent Foundation, priority 2017, dated 2026) are described below.

The structures appear in SMILES notation. Read-outs that look alike come from different tables or passages of the source.

The IC50 is the point on the concentration scale where inhibition reaches its midpoint. One may read the inhibition as the percentage by which the read-out fell short of the control.

In assay [1] the target is T1, recombinant DGKα (Rattus norvegicus, UniProt P51556).
T1 construct: expressed in transfected cells; host or cells: HEK293T (SILAC HEK293T for LC-MS)
Nature of the assay: Gel-based ATP acyl phosphate chemical proteomic assay. The format is binding. Conditions: for blockade of DGKα ATP probe labeling: compounds 100 μM (ATP 1 mM; RF001 at indicated concentrations), probe 10 μM. Here is the method:
Cell pellets were resuspended in kinase buffer (Dulbecco's PBS (DPBS, Hyclone), 20 mM MgCl2, EDTA-free protease inhibitors (Pierce)) and then lysed by sonication (3×1 sec pulse, 20% amplitude). The cell lysates were then subjected to centrifugation (100,000×g, 45 min at 4° C.) to isolate the cytosolic fraction in the supernatant and the membrane fraction as a pellet. The membrane pellet was resuspended in kinase buffer by sonication. […] The only exception was experiments involving DGKE; recombinant DGKE protein was most prominently expressed in the membrane fraction and so this fraction was utilized to study DGKE enzyme (see FIG. 8). Protein concentrations were measured using the Bio-Rad DC protein assay. Samples were stored at −80° C. until use.
Proteome concentration was adjusted to 2 mg/mL in kinase buffer. Proteomes were first pre-treated with compound (0.6 μL, 50× stock in DMSO) mixed with gentle flicking, and incubated for 30 min at 25° C. in a microfuge tube (30 μL reaction volume). […] Reactions were then quenched with 10 AL of 4×SDS-PAGE loading buffer. Protein samples (15 μL) were loaded onto 4-20% TGX Stain-Free Protein Midi Gel and resolved by SDS-PAGE at 150V for 55 min. Proteins were then transferred to a nitrocellulose blot by Bio-Rad Trans-Blot Turbo Transfer System (25V. 10 min) to enhance sensitivity. The nitrocellulose blot was then incubated in blocking solution (30 mL, 3% BSA in TBS-T) for 1 h at 25° C. with gentle shaking. The blot was then transferred immediately to antibody solution (30 mL, 5% BSA in ddH2O with 0.1% Tween20 and 1:3000 Streptavidin DyLight 550) and incubated for 2 h at 25° C. with gentle shaking. The blot was then rinsed 5 times for 5 min in TBS-T. and then transferred into ddH2O. The blot was then imaged by in-blot fluorescence scanning on a ChemiDoc MP Imaging System. Fluorescence intensity signals were normalized to total lane protein using the Bio-rad Stain Free imaging (Posch et al., 2013).
The percentage of enzyme activity remaining was determined by comparing integrated band intensities or luminescence of inhibitor—with DMSO-treated samples for gel-based chemical proteomic or ADP-glo assays, respectively. For both chemical proteomic and ADP-glo methods, nonlinear regression analysis was used to determine the IC50 values from a dose-response curve generated using GraphPad Prism. Data are shown as mean±s.e.m. Determination of significance was performed by one-way ANOVA. All statistical analyses were performed using GraphPad Prism.

In assay [2] the target is Gamma (DGK gamma) (Homo sapiens, UniProt P49619). Put plainly: DGK isoform % Activity screen. The format is biochemical.
Sequence of Gamma (DGK gamma) (P49619 whole entry, canonical isoform): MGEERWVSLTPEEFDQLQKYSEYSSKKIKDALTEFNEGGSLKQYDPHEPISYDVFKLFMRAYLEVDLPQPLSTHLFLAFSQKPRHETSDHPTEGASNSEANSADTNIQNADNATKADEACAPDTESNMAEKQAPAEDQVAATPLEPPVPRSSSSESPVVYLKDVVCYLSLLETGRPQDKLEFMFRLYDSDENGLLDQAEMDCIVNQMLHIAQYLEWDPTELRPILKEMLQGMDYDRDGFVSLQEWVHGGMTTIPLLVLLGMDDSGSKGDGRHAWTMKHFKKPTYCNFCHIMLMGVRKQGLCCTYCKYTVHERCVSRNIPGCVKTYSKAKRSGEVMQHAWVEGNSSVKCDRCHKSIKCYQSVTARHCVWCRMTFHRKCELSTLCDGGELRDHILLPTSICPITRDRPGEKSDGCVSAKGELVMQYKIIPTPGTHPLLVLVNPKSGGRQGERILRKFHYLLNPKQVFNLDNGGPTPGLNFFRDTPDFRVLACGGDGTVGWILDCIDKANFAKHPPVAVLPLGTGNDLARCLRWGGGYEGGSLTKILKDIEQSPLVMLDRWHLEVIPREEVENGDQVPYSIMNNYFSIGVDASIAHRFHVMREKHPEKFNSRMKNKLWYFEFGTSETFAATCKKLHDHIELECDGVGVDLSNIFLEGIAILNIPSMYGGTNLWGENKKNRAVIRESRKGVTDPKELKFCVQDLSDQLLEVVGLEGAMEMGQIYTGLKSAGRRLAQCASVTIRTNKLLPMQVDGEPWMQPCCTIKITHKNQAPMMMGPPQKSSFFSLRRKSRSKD

T1 sequence (P51556 whole entry): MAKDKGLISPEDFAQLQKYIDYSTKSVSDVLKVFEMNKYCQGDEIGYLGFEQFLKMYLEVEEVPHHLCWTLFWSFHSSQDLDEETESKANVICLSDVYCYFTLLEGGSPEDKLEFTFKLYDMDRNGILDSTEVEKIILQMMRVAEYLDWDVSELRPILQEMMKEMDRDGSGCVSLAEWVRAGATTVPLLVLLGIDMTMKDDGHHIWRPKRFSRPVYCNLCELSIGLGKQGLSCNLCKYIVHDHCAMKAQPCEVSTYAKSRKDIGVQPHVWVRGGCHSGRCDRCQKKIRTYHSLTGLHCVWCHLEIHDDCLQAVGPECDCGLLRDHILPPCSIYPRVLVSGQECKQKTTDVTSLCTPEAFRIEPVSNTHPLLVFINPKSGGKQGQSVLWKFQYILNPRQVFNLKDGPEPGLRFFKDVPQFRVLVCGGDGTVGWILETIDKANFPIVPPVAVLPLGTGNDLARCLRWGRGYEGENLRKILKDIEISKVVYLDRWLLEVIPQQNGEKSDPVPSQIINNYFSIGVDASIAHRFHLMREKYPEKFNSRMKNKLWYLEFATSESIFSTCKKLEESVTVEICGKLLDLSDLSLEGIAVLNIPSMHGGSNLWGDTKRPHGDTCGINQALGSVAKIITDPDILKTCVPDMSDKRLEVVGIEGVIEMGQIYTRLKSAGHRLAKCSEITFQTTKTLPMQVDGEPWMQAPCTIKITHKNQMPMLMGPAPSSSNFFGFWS

Consider `Cc1nc2sccn2c(=O)c1CCN1CCC(=C(c2ccc(F)cc2)c2ccc(F)cc2)CC1` [Ritanserin], for which the IC50 is 57 µM in assay [1] (IC50, blockade of ATP probe labeling of DGKα (gel-based), 10 μM ATP probe, 30 min) and 17 to 192 µM in assay [1] (read-out: 95% confidence intervals for IC50 values, gel-based assay). The “blockade of DGKα ATP probe labeling” value in assay [1] (30 min) is listed as “blocked probe labeling”. In addition, in assay [2], the activity at 100 µM amounted to 55%.
For the molecule `Fc1ccc(C(=C2CCNCC2)c2ccc(F)cc2)cc1` [RF001, 4-(Bis(4-fluorophenyl)methylene) piperidine], the inhibition at 1000 µM in assay [1] (1 mM, read-out: inhibition of DGKα activity in the probe-binding assay) is > 80%. The “blockade of DGKα ATP probe labeling” value in assay [1] (30 min) was “blocked probe labeling in a concentration-dependent manner”. The molecule also registered an activity at 100 µM in assay [2] of 82%. The activity at 1000 µM in assay [2] (read-out: 1 mM % Activity, Gamma) was 5%.
As to `O=C(c1ccc(F)cc1)C1CCN(CCn2c(=O)[nH]c3ccccc3c2=O)CC1` [Ketanserin], the “blockade of DGKα ATP probe labeling” value in assay [1] (30 min) is listed as “not ketanserin”. This molecule came in with an activity at 100 µM in assay [2] of 24%.
